From patent publication US6969708B1, “Process for the preparation of a high purity composition comprising (7α, 17α)- 17-hydroxy- 7-methyl- 19-nor-17-pregn-5(10)-en-20-yn-3-one” (Akzo Nobel N.V., priority 1998, dated 2005)

Experiment: Stress test at 45° C. of bulk Tibolone crystals (increase of Org OM38)
Type: physicochemical
Procedure: A solution of (7α, 17α)-3,3-dimethoxy-17-hydroxy-7-methyl-19-norpregn-5(10)-en20-yn-3-one (15 kg) in a mixture of pyridine (630 ml) and ethanol (315 liters) was mixed with a solution of oxalic acid (750 gr) in water (90 liters) and the mixture was stirred for 2 hours at approximately 30° C. The solution was poured out in a mixture of pyridine (1350 ml) and water (300 liters) and the resulting suspension was filtered. The crystals were washed with a mixture of water and pyridine and dried under vacuum at 40° C. to give (7α, 17α)-17-hydroxy-7-methyl-19-norpregn-5(10)-en-20-yn-3-one containing 0.6% of the corresponding (7α, 17α)-17-hydroxy-7-methyl-19-norpregn-4-en-20-yn-3-one as indicated by HPLC analysis; a stress test at 45° C. (duration 1 month) indicated a 0.4% increase of the latter compound.
A solution of (7α, 17α)-3,3-dimethoxy-17-hydroxy-7-methyl-19-norpregn-5(10)-en-20-yn-3-one (15 kg) in a mixture of pyridine (630 ml) and ethanol (315 liters) was mixed with a solution of oxalic acid (375 gr) in water (90 liters) and the mixture was stirred for 3 hours at approximately 30° C. The solution was poured out in a mixture of pyridine (1350 ml) and water (300 liters) and the resulting suspension is filtered. The crystals are washed with a mixture of water and pyridine and allowed to age for 3–6 days at room temperature. Subsequently, the crystals were dried under vacuum at 40° C. to give (7α, 17α)-17-hydroxy-7-methyl-19-norpregn-5(10)-en-20-yn-3-one containing≦0.1% of the corresponding (7α, 17α)-17-hydroxy-7-methyl-19-norpregn-4-en-20-yn-3-one as indicated by HPLC analysis; a stress test at 45° C. (duration 1 week) indicated a<0.1% increase of the latter compound.
The preparation as described in example 2 was repeated. (7α, 17α)-17-hydroxy-7-methyl-19-norpregn-5(10)-en-20-yn-3-one was obtained which contained 0.2% of the corresponding. (7α, 17α)-17-hydroxy-7-methyl-19-norpregn-4-en-20-yn-3-one as indicated by HPLC analysis; a stress test at 45° C. (duration 1 week) indicated a 0.1% increase of the latter compound.

Compound	increase of (7α, 17α)-17-hydroxy-7-methyl-19-norpregn-4-en-20-yn-3-one in stress test (duration 1 week) [%]	increase of (7α, 17α)-17-hydroxy-7-methyl-19-norpregn-4-en-20-yn-3-one in stress test (duration 1 month) [%]
C#C[C@]1(O)CCC2C3C(CCC21C)C1=C(CC(=O)CC1)C[C@H]3C (single isomer, unassigned) [Example 3, (7α, 17α)-17-hydroxy-7-methyl-19-norpregn-5(10)-en-20-yn-3-one]	0.1	
C#C[C@]1(O)CCC2C3C(CCC21C)C1=C(CC(=O)CC1)C[C@H]3C (stereo partly drawn) [Example 1, (7α, 17α)-17-hydroxy-7-methyl-19-norpregn-5(10)-en-20-yn-3-one]		0.4
C#C[C@]1(O)CCC2C3C(CCC21C)C1=C(CC(=O)CC1)C[C@H]3C (single isomer, unassigned) [Example 2, (7α, 17α)-17-hydroxy-7-methyl-19-norpregn-5(10)-en-20-yn-3-one]	< 0.1	
